Assay results as given in US6239134A, “Diazole derivatives as serotonergic agents” (American Home Products Corp., priority 2000, dated 2001).
Where a name gives a salt, the structure may show the parent alone. Read-outs that look alike come from different tables or passages of the source.

Legend:
[1] = target: T1, human 5HT1A receptor (Homo sapiens, UniProt P08908); assay: 5-HT1A Receptor Intrinsic Activity Assay (agonist mode; reversal of stimulated cAMP in stably transfected CHO cells); type: cell-based; conditions: read-out: cAMP Emax
T1 construct: expressed in transfected cells; host or cells: CHO cells, stably transfected
T1 sequence (P08908 1-422): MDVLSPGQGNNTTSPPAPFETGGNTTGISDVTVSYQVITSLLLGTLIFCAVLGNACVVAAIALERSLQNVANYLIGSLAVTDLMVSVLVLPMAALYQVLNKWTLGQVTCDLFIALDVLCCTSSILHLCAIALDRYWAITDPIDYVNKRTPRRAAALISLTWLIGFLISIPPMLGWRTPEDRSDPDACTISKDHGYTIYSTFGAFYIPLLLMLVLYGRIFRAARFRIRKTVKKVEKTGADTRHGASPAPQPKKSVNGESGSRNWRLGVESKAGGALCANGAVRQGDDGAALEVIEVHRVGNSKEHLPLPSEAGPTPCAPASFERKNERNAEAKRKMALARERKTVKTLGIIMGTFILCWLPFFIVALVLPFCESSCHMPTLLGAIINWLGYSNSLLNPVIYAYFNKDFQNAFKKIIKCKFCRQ
Method: 5-HT1A Receptor Intrinsic Activity Assay
The intrinsic activity of compounds of the present invention was established by testing the claimed compounds ability to reverse the stimulation of cyclic adenosinemonophosphate (cAMP) in CHO cells stably transfected with the human 5-HT1A receptor.
Stably transfected CHO cells were grown in DMEM containing 10% heat inactivated FBS and non-essential amino acids. The cells are plated at a density of […] per well in a 24 well plate and incubated for 2 days in a CO2 incubator. On the second day, the media is replaced with 0.5 mL treatment buffer (DMEM+25 mM HEPES, 5 mM theophylline, […] pargyline) and incubated for 10 minutes at 37° C. Wells are treated with forskolin ([…]) followed immediately by the test compound ([…] for initial screen) and incubated for an additional 10 minutes at 37° C. The reaction is terminated by removal of the media and addition of 0.5 mL ice cold assay buffer (supplied in the RIA kit). Plates are stored at -20° C. prior to assessment of cAMP formation by RIA. EC50 values are determined for the active test compounds. Compounds shown to have no agonist activities (Emax=0%) are further analyzed for their ability to reverse agonist induced activity. In separate experiments, 6 concentrations of antagonist are preincubated for 20 minutes prior to the addition of agonist and forskolin. Cells are harvested as described above. The cAMP kit is supplied by Amersham and the RIA is performed as per kit instructions, and calculations of IC50 performed by GraphPad Prism.

[2] = target: T1, human 5HT1A receptor; assay: 5-HT1A Receptor Binding Assay (displacement of [3H] 8-OH-DPAT in stably transfected CHO cells); conditions: @ 1 _M, single point assay
Method: 5-HT1A Receptor Binding Assay
High affinity for the serotonin 5-HT1A receptor was established by testing the claimed compound's ability to displace [3H] 8-OH-DPAT binding in CHO cells stably transfected with the human 5HT1A receptor. Stably transfected CHO cells are grown in DMEM containing 10% heat inactivated FBS and non-essential amino acids. Cells are scraped off the plate, transferred to centrifuge tubes, and washed twice by centrifugation (2000 rpm for 10 min., 4° C.) in buffer (50 mM Tris pH 7.5). The resulting pellets are aliquoted and placed at -80° C. On the day of assay, the cells are thawed on ice and resuspended in buffer. The binding assay is performed in a 96 well microtiter plate in a total volume of […]. Non-specific binding is determined in the presence of […], final ligand concentration is 1.5 nM. Following a 30 minute incubation at room temperature, the reaction is terminated by the addition of ice cold buffer and rapid filtration through a GF/B filter presoaked for 30 minutes in 0.5% PEI. Compounds are initially tested in a single point assay to determine percent inhibition at […], and Ki values are determined for the active compounds.

[3] = forskolin-stimulated cAMP, CHO cells

SMILES | Emax [1, 3] [%] | also measured
O=C(N[C@@H](Cc1ccccc1)CN1CCN(c2nsnc2Cl)CC1)C1CCCCC1 [Compound 4, Cyclohexanecarboxylic acid {(1S)-1-benzyl-2-(4-(4-chloro[1,2,5}thiadiazol-3-yl)piperazin-1-yl]ethyl}amide fumarate] |  | Emax ([1]; CHO): 93%
O=C(N[C@@H](Cc1ccccc1)CN1CCN(c2nsnc2Cl)CC1)c1ccccn1 [Compound 6, Pyridine-2-carboxylic acid {(1S)-1-benzyl-2,3-[4(4-chloro[1,2,5]thiadiazol-3-yl)piperazin-1-yl]ethyl}amide] |  | 5-HT1A binding, percent inhibition [2]: 47%
CN(C(=O)C1CCCCC1)[C@H](Cc1ccccc1)CN1CCN(c2nsnc2Cl)CC1 [Compound 7] | 0 | 

Further lines, with some results ahead:

Emax [1, 3] [%] | SMILES | also measured
0 | COc1nsnc1N1CCN(C[C@@H](Cc2ccccc2)N(C)C(=O)C2CCCCC2)CC1 [Compound 8, Cyclohexanecarboxylic acid {(1R)-1-benzyl-2-[4-(4-methoxy-[1,2,5]thiadiazol-3-yl)-piperazine-1-yl]ethyl}methyl amide] | 
0 | COc1nsnc1N1CCN(C[C@@H](Cc2cccnc2)NC(=O)C2(C)CCCCC2)CC1 [Compound 11, 1-Methylcyclohexanecarboxylic acid {(1R)-2-[4-(4-methoxy-[1,2,5]thiadiazol-3-yl)-piperazin-1-yl]-1-pyridin-3-ylmethylethyl}amide] | 
